# Measured values taken from patent US20170112775A1, “SITU SELF-ASSEMBLING PRO-NANOPARTICLE COMPOSITIONS AND METHODS OF PREPARATION AND USE THEREOF” (University of North Texas Health Science Center, priority 2015, published 2017).
# Where a name gives a salt, the structure may show the parent alone. Read-outs that look alike come from different tables or passages of the source.
# Columns and labels:
# [1] = cited from earlier work
# [2] = Solubility screening in oils and surfactants; assay type: physicochemical
# Description: These studies were performed to test the solubility of RTV in oils and surfactants. Briefly, oils and surfactants were accurately weighed into glass vials. Certain amounts of […] were added into the glass vials. The vials were stirred on the hot plate maintained at 65° C. for 3 min. The solubilization was monitored by eyes and the drug solubility (w/w) was estimated.
# These studies were performed to test the solubility in oils and surfactants. The solubility of DTX was determined in oils (oleic acid, Migloyl 812, Kollisolv® MCT70, Kolliwax® GMSI, Imwitor® 960, and Labrafac) and surfactants (TPGS, Poloxamer 188, Tween 20, and Tween 80). Oils and surfactants were accurately weighed into glass vials. Excess amounts of DTX were added into glass vials containing vehicles. The vials were stirred on the hot plate maintained at 65° C. for 3 min. The drug solubility (w/w) was calculated.
# These studies were performed to test the solubility in oils and surfactants. The solubility of CUR was determined in oils (Migloyl 812 N, Migloyl 829, Imwitor 491, Kollisolv MCT70, labrafac, Imwitor 900K, Imwitor 960 and Campriltol 888) and surfactants (Tween 20, Tween 80, Labrasol, Poloxamer 188, TPGS and Gelucire 44/14). Oils and surfactants were accurately weighed into glass vials. Excess amounts of CUR were added into glass vials containing vehicles. The vials were stirred on the hot plate maintained at 65° C. for 3 min. The drug solubility (w/w) was calculated.
# [3] = system: PC3 resistant prostate cancer cell line; assay: MTT cytotoxicity, PC3 resistant; assay type: cell-based; settings: Homo sapiens, 72 hr
# Description: (§1) The cytotoxicity of DTX MT NPs was tested in PC3 and DU145 sensitive and resistant cell using MTT [3-(4,5-dimethylthiazol-2-yl)-2,5-diphenyltetrazolium bromide] assay. Cells were seeded into 96-well plates with a density of 7,000 cells/well and incubated at 37° C. for 24 hr under 5% CO2. Following that, cells were treated with a drug equivalent concentration ranging from 0.5-10,000 nM for DTX, DTX MT NPs, and blank NPs. Due to low water solubility, DTX was dissolved with DMSO. After 72 hr of incubation, the medium was removed from each well and replaced with 90 μL of DMEM medium without phenol red and 10 μL of MTT (5 mg/mL in PBS). The plates were incubated at 37° C. with 5% CO2 for 4 hr. […] The absorbance was measured at a test wavelength of 570 nm and a reference wavelength of 650 nm in a microplate reader (Synergy H1 hybrid Multi-Mode Microplate Reader)
# (§2) The cytotoxicity of CUR MT NPs was tested in DU145 and PC-3 human prostate cancer cell lines using MTT [3-(4,5-dimethylthiazol-2-yl)-2,5-diphenyltetrazolium bromide] assay. […] After 72 hr of incubation, the medium was removed from each well and replaced with 90 μL of DMEM medium without phenol read and MTT (10 μL of 5 mg/mL in PBS). […] The absorbance was measured at a test wavelength of 570 nm and a reference wavelength of 650 nm in a microplate reader (Beckman Coulter, Inc.).
# [4] = system: cancer cells; settings: cited from earlier work
# [5] = system: PC3 sensitive prostate cancer cell line; assay: MTT cytotoxicity, PC3 sensitive; assay type: cell-based; settings: Homo sapiens, 72 hr
# Description: as §1, §2
# [6] = system: DU145 resistant prostate cancer cell line; assay: MTT cytotoxicity, DU145 resistant; assay type: cell-based, human; settings: for IC50: Homo sapiens, 72 hr, MTT
# Description: The cytotoxicity of DTX MT NPs was tested in PC3 and DU145 sensitive and resistant cell using MTT [3-(4,5-dimethylthiazol-2-yl)-2,5-diphenyltetrazolium bromide] assay. Cells were seeded into 96-well plates with a density of 7,000 cells/well and incubated at 37° C. for 24 hr under 5% CO2. Following that, cells were treated with a drug equivalent concentration ranging from 0.5-10,000 nM for DTX, DTX MT NPs, and blank NPs. Due to low water solubility, DTX was dissolved with DMSO. After 72 hr of incubation, the medium was removed from each well and replaced with 90 μL of DMEM medium without phenol red and 10 μL of MTT (5 mg/mL in PBS). The plates were incubated at 37° C. with 5% CO2 for 4 hr. Formazan produced by mitochondria enzymes of living cells was dissolved in 150 μL of isopropanol containing 0.04 N HCl for 5 min. The absorbance was measured at a test wavelength of 570 nm and a reference wavelength of 650 nm in a microplate reader (Synergy H1 hybrid Multi-Mode Microplate Reader)
# The cytotoxicity of CUR MT NPs was tested in DU145 and PC-3 human prostate cancer cell lines using MTT [3-(4,5-dimethylthiazol-2-yl)-2,5-diphenyltetrazolium bromide] assay. Cells were seeded into 96-well plates at 7,000 cells/well and incubated 37° C. for 24 hr under 5% CO2. After overnight incubation, cells were treated with drug concentration ranging from 0-27 μM for CUR, CUR MT NPs, and blank NPs. Due to low water solubility, CUR was dissolved with DMSO. After 72 hr of incubation, the medium was removed from each well and replaced with 90 μL of DMEM medium without phenol read and MTT (10 μL of 5 mg/mL in PBS). After incubating for 4 hr at 37° C. with 5% CO2, 0.04 N HCl/isopropanol was added to each well and incubated for 5 min to dissolve formazan crystals formed by viable cells. The absorbance was measured at a test wavelength of 570 nm and a reference wavelength of 650 nm in a microplate reader (Beckman Coulter, Inc.).
# [7] = system: DU145 sensitive prostate cancer cell line; assay: MTT cytotoxicity, DU145 sensitive; assay type: cell-based; settings: Homo sapiens, 72 hr
# Description: as §1, §2
# [8] = PK study after subcutaneous injection; assay type: in vivo, Sprague Dawley rats; settings: male, Sprague Dawley, rat, plasma, sc, after 6 days, one subcutaneous injection of LPV/RTV ISNPs
# Description: Animal studies were performed in compliance with guidelines set by the University of North Texas Health Science Center Institutional Animal Care and Use Committees. Rats were housed in groups of 2 under a 12-h light/dark cycle with free access to food and water for 1 week before use. Sprague Dawley rats (males, 276-300 g, n=4) were purchased from Charles River Laboratories (Wilmington, Mass.). Pharmacokinetic studies were conducted to evaluate the pharmacokinetic profiles of LPV and RTV from LPV/RTV ISNPs. Rats were treated with 100 ul of LPV/RTV ISNPs to provide 100 mg/kg of LPV by subcutaneous injection. After the injection, the inventor collected the blood at 0, 1, 2, 3, 5, 6, 24 hours and 2, 3, 4, 5, 6 days. The blood was immediately centrifuged at 3400 rpm for 5 min at 4° C., and 100 ul of plasma samples were transferred to a new tube and stored at −20° C. until further analysis within 3 weeks. LPV and RTV concentrations in the plasma were determined by liquid chromatography-mass spectrometry (LC-MS, an Agilent G6460 Triple Quad LC-MS system) using a previously reported method.
smiles,measurement,setting,value
"COC(=O)N[C@H](C(=O)N[C@@H](Cc1ccccc1)[C@@H](O)CN(Cc1ccc(-c2ccccn2)cc1)NC(=O)[C@@H](NC(=O)OC)C(C)(C)C)C(C)(C)C [ATV, atazanavir]",Bioavailability,[1]; without food,about 20%
COc1cc(/C=C/C(=O)CC(=O)/C=C/c2ccc(O)c(OC)c2)ccc1O [Curcumin],Solubility (w/w),"[2]; in Campriltol 888, 65° C.",0.0160 w/w
same,Solubility (w/w),"[2]; in Gelucire 44/14, 65° C.",0.153 w/w
same,Solubility (w/w),"[2]; in Imwitor 491, 65° C.",0.0261 w/w
same,Solubility (w/w),"[2]; in Imwitor 900K, 65° C.",0.0512 w/w
same,Solubility (w/w),"[2]; in Imwitor 960, 65° C.",0.0488 w/w
same,Solubility (w/w),"[2]; in Kollisolv MCT70, 65° C.",0.0179 w/w
same,Solubility (w/w),"[2]; in Labrafac, 65° C.",0.0120 w/w
same,Solubility (w/w),"[2]; in Labrasol, 65° C.",0.173 w/w
same,Solubility (w/w),"[2]; in Migloyl 812 N, 65° C.",0.0153 w/w
same,Solubility (w/w),"[2]; in Migloyl 829, 65° C.",0.0210 w/w
same,Solubility (w/w),"[2]; in Poloxamer 188, 65° C.",0.153 w/w
same,Solubility (w/w),"[2]; in TPGS, 65° C.",0.164 w/w
same,Solubility (w/w),"[2]; in Tween 20, 65° C.",0.166 w/w
same,Solubility (w/w),"[2]; in Tween 80, 65° C.",0.141 w/w
same,IC50,[3]; PC-3 resistance,7.7 ± 0.1 µM
same,Concentration with anticancer effects,[4],5 to 30 µM
same,IC50,[5]; PC-3 sensitive,7.9 ± 0.3 µM
same,IC50,[6]; DU-145 resistance,10 ± 0.5 µM
same,IC50 higher in resistant DU145 than in sensitive DU145,[6]; resistant vs sensitive DU145,1.4 fold
same,IC50,[7]; DU-145 sensitive,7.2 ± 0.4 µM
"Nc1nc(=O)n([C@@H]2CS[C@H](CO)O2)cc1F [FTC, emtricitabine]",Bioavailability,[1]; oral,over 98%
"CN(Cc1cnc2nc(N)nc(N)c2n1)c1ccc(C(=O)N[C@@H](CCC(=O)O)C(=O)O)cc1 [MTX, methotrexate]",Bioavailability,[1]; oral,30%
"CC(C)OC(=O)OCOP(=O)(CO[C@H](C)Cn1cnc2c(N)ncnc21)OCOC(=O)OC(C)C [TDF, tenofovir disoproxil fumarate]",Bioavailability,[1]; oral,25%
CC(=O)O[C@@]12CO[C@@H]1C[C@H](O)[C@@]1(C)C(=O)[C@H](O)C3=C(C)[C@@H](OC(=O)[C@H](O)[C@@H](NC(=O)OC(C)(C)C)c4ccccc4)C[C@@](O)([C@@H](OC(=O)c4ccccc4)[C@H]21)C3(C)C [docetaxel],Solubility (w/w),"[2]; in Imwitor 960K, 65° C.",0.053 w/w
same,Solubility (w/w),"[2]; in Kollisolv MCT70, 65° C.",0.038 w/w
same,Solubility (w/w),"[2]; in Kolliwax GMS I, 65° C.",0.025 w/w
same,Solubility (w/w),"[2]; in Labrafac, 65° C.",0.022 w/w
same,Solubility (w/w),"[2]; in Migloyl 812, 65° C.",0.079 w/w
same,Solubility (w/w),"[2]; in Oleic acid, 65° C.",0.066 w/w
same,Solubility (w/w),"[2]; in Poloxamer 188, 65° C.",0.019 w/w
same,Solubility (w/w),"[2]; in TPGS, 65° C.",0.008 w/w
same,Solubility (w/w),"[2]; in Tween 20, 65° C.",0.052 w/w
same,Solubility (w/w),"[2]; in Tween 80, 65° C.",0.082 w/w
same,IC50,[3]; PC3 resistance,0.0753 ± 0.0027 µM
same,IC50,[5]; PC3 sensitive,0.007 ± 0.0004 µM
same,IC50,"[6]; DU-145, DU145 resistance",0.87 ± 0.0854 µM
same,IC50,"[7]; DU-145, DU145 sensitive",0.0068 ± 0.0005 µM
Cc1cccc(C)c1OCC(=O)N[C@@H](Cc1ccccc1)[C@@H](O)C[C@H](Cc1ccccc1)NC(=O)[C@H](C(C)C)N1CCCNC1=O [lopinavir],concentration at 6 days,"[8]; 100 mg/kg of LPV, read-out: LPV Ctrough",> 160 ng/mL
same,Estimated solubility,"[2]; in Brij 78, 65° C.",0.4725 mg/mg
same,Estimated solubility,"[2]; in Glyceryl behenate, 65° C.",0.0744 mg/mg
same,Estimated solubility,"[2]; in Killiphor P 188/Poloxamer F68, 65° C.",0.3431 mg/mg
same,Estimated solubility,"[2]; in Kollisolv MCT70, 65° C.",0.0779 mg/mg
same,Estimated solubility,"[2]; in Kolliwax GMS I, 65° C.",0.5846 mg/mg
same,Estimated solubility,"[2]; in Miglyo812, 65° C.",0.0703 mg/mg
same,Estimated solubility,"[2]; in Oleic acid, 65° C.",1.19 mg/mg
same,Estimated solubility,"[2]; in TPGS, 65° C.",0.6012 mg/mg
CC(C)c1nc(CN(C)C(=O)N[C@H](C(=O)N[C@@H](Cc2ccccc2)C[C@H](O)[C@H](Cc2ccccc2)NC(=O)OCc2cncs2)C(C)C)cs1 [ritonavir],concentration at 6 days,[8]; read-out: RTV Ctrough,~50 ng/mL
